Laboratory results: ChEMBL document CHEMBL1158087, “Gracilarioside and gracilamides from the red alga Gracilaria asiatica” (2006)

Experiments:
[1] = Cytotoxicity against human A375S2 cells assessed as induction of cell death at 20 ug/mL by MTT assay; type: functional, A375-S2
[2] = Cytotoxicity against human A375S2 cells assessed as induction of cell death at 30 ug/mL by MTT assay; type: functional, A375-S2

| Compound | Activity [1] | Activity [2] |
| --- | --- | --- |
| CCCCCCCCCCCCCCCCCCCCCCC[C@@H](O)C(=O)N[C@@H](CO[C@@H]1O[C@H](CO)[C@@H](O)[C@H](O)[C@H]1O)[C@H](O)[C@H](O)C/C=C/CCCCC1CC1CCCC (stereo partly drawn) [GRACILARIOSIDE] | 18.2% | – |
| CCCCCCCCCCCCCCCCCCCCCC[C@@H](O)[C@@H](O)[C@H](CO)NC(=O)[C@H](O)CCCCCCCCC1CC1CCCC (stereo partly drawn) [GRACILAMIDE B] | – | 11.7% |
| CCCCCCCCCCCCCCCCCCCCCCC[C@@H](O)C(=O)N[C@@H](CO)[C@H](O)[C@H](O)C/C=C/CCCCC1CC1CCCC (stereo partly drawn) [GRACILAMIDE A] | – | 11.7% |
